Data published in patent US20230398125A1, “TREATING HEPATITIS” (Albireo AB, priority 2022, published 2023).
Counter-ions that a name gives are not always drawn. Like-named read-outs stand apart in the source and are kept apart here.

Columns and labels:
[1] = molecular target: T1, Human NTCP (Homo sapiens, UniProt Q14973); assay: [3H]taurocholate uptake in cell lines expressing human NTCP (Compound 2); assay type: cell-based
T1 construct: expressed in transfected cells; peptide purchased from Pharmaron
T1 sequence (Q14973 1-349): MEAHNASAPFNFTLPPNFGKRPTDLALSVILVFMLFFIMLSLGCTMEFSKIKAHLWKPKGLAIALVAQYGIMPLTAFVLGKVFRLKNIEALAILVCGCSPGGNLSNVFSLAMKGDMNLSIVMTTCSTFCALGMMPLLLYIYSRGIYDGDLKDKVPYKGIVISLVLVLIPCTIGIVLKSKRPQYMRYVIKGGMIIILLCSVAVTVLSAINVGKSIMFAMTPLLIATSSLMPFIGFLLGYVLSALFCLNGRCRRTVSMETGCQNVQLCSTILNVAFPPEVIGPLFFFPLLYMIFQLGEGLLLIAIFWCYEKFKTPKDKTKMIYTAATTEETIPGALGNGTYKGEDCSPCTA
Method: (§1) NTCP and the related BA transporter apical sodium-dependent BA transporter (ASBT) from human were expressed in cell lines. Inhibition by Compound 2 was studied using [^3]taurocholate as substrate. Cryopreserved human hepatocytes infected with a clinical isolate of HBV were used for infection experiments. Two female non-human primates (NHPs) were dosed with Compound 2 via oral gavage at dose levels of Compound 2 ranging between 3-30 mg/kg once daily for 5 days. Total serum, urine, and fecal BAs were analyzed enzymatically and Compound 2 plasma concentrations were assessed via liquid chromatography-tandem mass spectrometry. The oral pharmacokinetics of Compound 2 was also studied in mice, rats, and dogs.

[2] = molecular target: T2, ASBT (Homo sapiens, UniProt Q12908); assay: [3H]taurocholate uptake in cell lines expressing human ASBT (Compound 2); assay type: cell-based
T2 construct: expressed in transfected cells
T2 sequence (Q12908 1-348): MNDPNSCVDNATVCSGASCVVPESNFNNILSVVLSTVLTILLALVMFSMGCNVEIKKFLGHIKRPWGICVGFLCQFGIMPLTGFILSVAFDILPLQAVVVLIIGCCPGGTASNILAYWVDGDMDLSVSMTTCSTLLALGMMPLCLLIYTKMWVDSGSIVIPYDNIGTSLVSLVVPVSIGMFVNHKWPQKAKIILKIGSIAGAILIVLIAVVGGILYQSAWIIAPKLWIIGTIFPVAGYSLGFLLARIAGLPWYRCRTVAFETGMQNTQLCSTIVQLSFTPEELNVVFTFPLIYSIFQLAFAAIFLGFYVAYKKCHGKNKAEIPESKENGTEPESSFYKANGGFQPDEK
Method: as §1

[3] = tested on: HBV (clinical isolate); assay: HBV infection of cryopreserved human hepatocytes (Compound 2); assay type: cell-based; conditions: Hepatitis B virus, Hepatocyte
Method: as §1

[4] = tested on: human hepatocytes; assay: Cell viability of human hepatocytes (Compound 2); assay type: cell-based
[5] = Serum, urine and fecal bile acids and C4 in non-human primates after oral dosing; assay type: in vivo; conditions: NHPs
Method: as §1

[6] = Plasma concentrations of Compound 2 in non-human primates; assay type: in vivo; conditions: NHPs, 3-30 mg/kg oral once daily for 5 days
Method: as §1

[7] = Oral pharmacokinetics of Compound 2 in mice, rats and dogs; assay type: in vivo; conditions: across all species
Method: as §1

[8] = tested on: HBV (HepG2 AD38 genotype D); assay: HBV infection of primary human hepatocytes, extracellular HBV DNA by qPCR; assay type: cell-based, hepatitis B virus; conditions: for EC50: Hepatitis B virus, read-out: EC50
[9] = XTT cell toxicity in primary human hepatocytes; assay type: cell-based; conditions: human, primary human hepatocytes, read-out: TC50
Method: Multiplicity of Infection (MOI) is defined as the number of HBV genome equivalents, as determined by the qPCR quantitation, added per cell in the respective growth format. The overnight media was removed from the cells and replaced with 190 μL of new, serum-free HI media/4% PEG8000 and 10 μL of the diluted virus stock (HepG2 AD38 genotype D) for a MOI of 500. Medium alone was added to the cells containing compound for the parallel cytotoxicity evaluation. After 18 hours of virus infection, the cells were gently washed five times with DPBS, followed by a new addition of 200 μL HI media containing compounds on day 1, day 4 and day 7 post-infection. In one set of experiments (Study #01), the effect of giving compound 18 h prior to infection, versus 18 h post-infection was studied. The supernatant removed from the cytotoxicity plates at each medium change was stored at −20° C. for shipment to the client. The supernatant was collected at 10 days post infection and stored at −20° C. for total extracellular HBV DNA copy number to be quantitatively determined by qPCR. Cell viability was measured by XTT tetrazolium dye at day 10 for the cytotoxicity plates.
Following incubation at 37° C. in a 5% CO2 incubator for ten days, the test plates were stained with the tetrazolium dye XTT (2,3-bis(2-methoxy-4-nitro-5-sulfophenyl}-5-[(phenylamino)carbonyl]-2H-tetrazolium hydroxide). XTT-tetrazolium was metabolized by the mitochondrial enzymes of metabolically active cells to a soluble formazan product. XTT solution was prepared daily as a stock of 1 mg/mL in RPMI1640. Phenazine methosulfate (PMS) solution was prepared at 0.15 mg/mL in PBS and stored in the dark at −20° C.
XTT/PMS stock was prepared immediately before use by adding 40 μL of PMS per mL of XTT solution. Fifty microliters of XTT/PMS were added to each well of the plate and the plate was re-incubated for 4 hours at 37° C. Plates were sealed with adhesive plate sealers and shaken gently or inverted several times to mix the soluble formazan product and the plate was read spectrophotometrically at 450/650 nm with a Molecular Devices Vmax plate reader.
Each concentration of inhibitor and controls were analyzed in triplicate for HBV DNA copies and for cellular toxicity, respectively. From control wells without inhibitor, the mean of these three replicates was calculated and the HBV DNA mean was set to 100% viral control and the XTT mean was set to 100% cell viability. The effect of compound was then expressed as % of viral control and % cell viability, respectively.

With CCCCC1CN(c2ccc(F)cc2)c2cc(SC)c(OCC(C)(C)C(=O)O)cc2S(=O)(=O)N1C (stereo not drawn) [Compound 2, 3-((3-butyl-5-(4-fluorophenyl)-2-methyl-7-(methylthio)-1,1-dioxido-2,3,4,5-tetrahydro-1,2,5-benzothiadiazepin-8-yl)oxy)-2,2-dimethylpropanoic acid] as the compound, how does the IC50 [1] read?
The IC50 was 3.4 nM.

And the IC50 [2]?
Its IC50 is 193 nM.

What about the IC50 [3] of the same compound?
Its IC50 is 13.5 nM.

What about the “effect on cell viability” value [4] of the same compound?
Its value is “without affecting cell viability”.

And the “levels of fecal BAs” value [5]?
The value was “did not change”.

What about the “urine excretion of BAs compared with vehicle” value [5] of the same compound?
Its value is “tended to increase”.

What about the “serum BAs at 24 hours post-dose” value ([5]; 10 mg/kg) of the same compound?
Its value is “returned to baseline”.

And the “serum BAs at 24 hours post-dose” value ([5]; 30 mg/kg)?
Its value is “still being elevated”.

What about the “duration of increases in serum BAs” value ([5]; 10 and 30 mg/kg, Day 1 and Day 5) of the same compound?
Its value is “at least 8 hours”.

And the “levels of 7-alpha-hydroxy-4-cholesten-3-one (C4)” value ([5]; after 5 days of repeated dosing)?
Its value is “did not change”.

And the “serum BAs” value ([5]; oral dosing, Day 1 and Day 5)?
The value was “increased in a dose-dependent manner”.

And the “plasma exposure versus dose” value [6]?
Its value is “increased with dose”.

What about the oral bioavailability [7] of the same compound?
Its oral bioavailability is “Good oral bioavailability”.

For CC(C)OC(=O)OCOP(=O)(CO[C@H](C)Cn1cnc2c(N)ncnc21)OCOC(=O)OC(C)C [Tenofovir disoproxil fumarate, reference compound], which EC50 ([8]; HepG2, 18 h, Study #01, compound given 18 h post-infection) is on record?
The EC50 was 20 nM.

What about the EC50 ([8]; HepG2, Study #01, compound given 18 h prior to infection, PHH, HBV DNA) of the same compound?
Its EC50 is 43 nM.

And the EC50 ([8]; HepG2, Study #02, PHH)?
Its EC50 is 64 nM.

And the EC50 ([8]; HepG2, Study #03, PHH)?
The EC50 was 59 nM.

What about the “antiviral activity/potency when given 18 h post-infection” value ([8]; Study #01) of the same compound?
The value was “maintained”.

And the Max inhibition ([8]; Study #01, 18 h post-infection)?
The Max inhibition was 97%.

What about the Max inhibition ([8]; Study #01, 18 h prior to infection) of the same compound?
The Max inhibition was 96%.

And the Max inhibition ([8]; Study #02)?
Its Max inhibition is 68%.

What about the Max inhibition ([8]; Study #03) of the same compound?
The Max inhibition was 61%.

And the Max inhibition ([8]; Study #03, listed as tenofovir)?
The Max inhibition was roughly 60%.

And the CC50 at 10 days ([9]; Study #01, 18 h post-infection section)?
The CC50 at 10 days was greater than 1000 nM.

What about the CC50 at 10 days ([9]; Study #01, XTT, PHH) of the same compound?
Its CC50 at 10 days is greater than 1000 nM.

What about the CC50 at 10 days ([9]; Study #02) of the same compound?
The CC50 at 10 days was greater than 100 nM.

What about the CC50 at 10 days ([9]; Study #03) of the same compound?
Its CC50 at 10 days is greater than 100 nM.
